Results taken from patent US10125100B2, “Kinase inhibitors” (Respivert Limited, priority 2014, dated 2018).

Columns and labels:
[1] = system: Jurkat cells; assay: (r) Cell cytotoxicity assay; assay type: cell-based, human; conditions: 24 hours
Procedure, shortened: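 Jurkat cells (1×10^5/well, RPMI + 10% FBS) exposed to compound at 20, 5 or 1 μg/mL final (1.0% DMSO control) for 24 h at 37° C., 5% CO2. Then stained with 7.5 μg/mL propidium iodide for 15 min. % viability = PI-negative cells by flow cytometry, normalized to DMSO.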

[2] = target: p38 MAPKα (MAPK14) (Homo sapiens (Human), UniProt Q16539); assay: p38 MAPKα enzyme inhibition (Method 2), Z-LYTE FRET; assay type: biochemical
Protocol: (§1) The enzyme inhibitory activities of compounds disclosed herein are determined by FRET using synthetic peptides labelled with both donor and acceptor fluorophores (Z-LYTE, Invitrogen Ltd., Paisley, UK).
The following two assay variants can be used for determination of p38 MAPKα inhibition.
The inhibitory activities of test compounds against the p38 MAPKα isoform (MAPK14: Invitrogen) are evaluated indirectly by determining the level of activation/phosphorylation of the down-stream molecule, MAPKAP-K2. The p38 MAPKα protein (80 ng/mL, 2.5 μL) is mixed with the test compound (2.5 μL of either 4 μg/mL, 0.4 μg/mL, 0.04 μg/mL or 0.004 μg/mL) for 2 hr at RT. […] The mixture is incubated for 1 hr at RT. Development reagent (protease, 5 μL) is added for 1 hr prior to detection in a fluorescence microplate reader (Varioskan® Flash, ThermoFisher Scientific).
This method follows the same steps as Method 1 above, but utilises a higher concentration of the p38 MAPKα protein (2.5 μL of 200 ng/mL protein instead of 2.5 μL of 80 ng/mL protein) for mixing with the test compound (tested at either 1 μg/mL, 0.1 μg/mL, 0.01 μg/mL or 0.001 μg/mL).
(§2) In all cases, the site-specific protease cleaves non-phosphorylated peptide only and eliminates the FRET signal. Phosphorylation levels of each reaction are calculated using the ratio of coumarin emission (donor) over fluorescein emission (acceptor), for which high ratios indicate high phosphorylation and low ratios indicate low phosphorylation levels.

[3] = target: Syk (Homo sapiens (Human), UniProt P43405); assay: Syk enzyme inhibition, Z-LYTE FRET; assay type: biochemical
Protocol: as §1
(§3) The relevant enzyme (3000 ng/mL or 2000 ng/mL respectively, 2.5 μL) is incubated with the test compound (either 1 μg/mL, 0.1 μg/mL, 0.01 μg/mL, or 0.001 μg/mL, 2.5 μL each) for 2 hr at RT. The FRET peptides (8 μM, 2.5 μL), and appropriate ATP solutions (2.5 μL, 800 μM for c-Src, and 60 μM ATP for Syk) are then added to the enzymes/compound mixtures and the mixture incubated for 1 hr. Development reagent (protease, 5 μL) is added for 1 hr prior to detection in a fluorescence microplate reader (Varioskan® Flash, ThermoFisher Scientific).
as §2

[4] = target: c-Src (Homo sapiens (Human), UniProt P12931); assay: c-Src enzyme inhibition, Z-LYTE FRET; assay type: biochemical
Protocol: as §1
as §3, with “The inhibitory activities of compounds of the invention against c-Src and Syk enzymes (Invitrogen), are evaluated in a similar fashion to that described hereinabove. The relevant” for “The relevant”
as §2

Chain of c-Src (P12931 whole entry, looked up): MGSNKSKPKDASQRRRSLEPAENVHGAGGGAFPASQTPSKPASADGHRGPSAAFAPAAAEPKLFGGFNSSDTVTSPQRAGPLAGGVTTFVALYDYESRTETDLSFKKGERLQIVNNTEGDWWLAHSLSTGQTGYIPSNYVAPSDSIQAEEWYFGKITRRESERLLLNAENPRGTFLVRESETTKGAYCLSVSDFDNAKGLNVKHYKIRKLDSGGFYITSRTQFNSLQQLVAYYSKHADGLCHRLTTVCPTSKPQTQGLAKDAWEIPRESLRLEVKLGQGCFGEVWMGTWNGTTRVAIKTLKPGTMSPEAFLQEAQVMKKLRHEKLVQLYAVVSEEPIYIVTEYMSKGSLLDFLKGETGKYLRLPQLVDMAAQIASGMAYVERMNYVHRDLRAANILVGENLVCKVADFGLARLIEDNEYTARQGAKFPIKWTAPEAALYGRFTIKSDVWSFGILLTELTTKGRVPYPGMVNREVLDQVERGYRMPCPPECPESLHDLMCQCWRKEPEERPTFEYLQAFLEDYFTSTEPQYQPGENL
Chain of p38 MAPKα (MAPK14) (Q16539 whole entry): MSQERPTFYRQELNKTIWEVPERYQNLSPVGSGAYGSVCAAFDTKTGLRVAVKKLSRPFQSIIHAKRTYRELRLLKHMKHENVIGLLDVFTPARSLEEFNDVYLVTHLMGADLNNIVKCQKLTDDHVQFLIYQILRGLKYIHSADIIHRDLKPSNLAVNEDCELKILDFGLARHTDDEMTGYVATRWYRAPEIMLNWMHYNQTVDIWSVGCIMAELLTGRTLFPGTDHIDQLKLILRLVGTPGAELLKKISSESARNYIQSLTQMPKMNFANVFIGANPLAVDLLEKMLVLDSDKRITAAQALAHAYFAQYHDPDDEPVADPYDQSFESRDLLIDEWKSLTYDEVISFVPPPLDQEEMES

SMILES | % Viability at 1 μg/mL [1] | % Viability at 5 μg/mL [1] | % Viability at 20 μg/mL [1] | IC50 [2] | IC50 [3] | IC50 [4]
COc1cc(Nc2cc(Oc3ccc(NC(=O)Nc4cc(C(C)(C)C)cc(NS(C)(=O)=O)c4OC)c4ccccc34)ccn2)ccc1C(=O)N(C)CCCN1CCOCC1 [17(af), 4-[[4-[[4-[[5-tert-butyl-3-(methanesulfonamido)-2-methoxy-phenyl]carbamoylamino]-1-naphthyl]oxy]-2-pyridyl]amino]-2-methoxy-N-methyl-N-(3-morpholinopropyl)benzamide] | 96.7% | 76.2% | 54.1% | 0.005 µM |  | 
COc1c(NC(=O)Nc2ccc(Oc3ccnc(Nc4ccc(C(=O)O)c(N(C)C)c4)c3)c3ccccc23)cc(C(C)(C)C)cc1NS(C)(=O)=O [17(am), 4-[[4-[[4-[[5-tert-butyl-3-(methanesulfonamido)-2-methoxy-phenyl]carbamoylamino]-1-naphthyl]oxy]-2-pyridyl]amino]-2-(dimethylamino)benzoic acid] | 103.4% | 90.5% | 32.5% | 0.004 µM | 0.124 µM | 0.068 µM
COc1cc(Nc2cc(Oc3ccc(NC(=O)Nc4cc(C(C)(C)C)cc(NS(C)(=O)=O)c4OC)c4ccccc34)ccn2)cc(OC)c1C(=O)NCCN1CCN(C)CC1 [Example 22, 4-((4-((4-(3-(5-(tert-Butyl)-2-methoxy-3-(methylsulfonamido)phenyl)ureido)naphthalen-1-yl)oxy)pyridin-2-yl)amino)-2,6-dimethoxy-N-(2-(4-methylpiperazin-1-yl)ethyl)benzamide] | 102.8% | 96.6% | 42.9% | 0.006 µM | 0.138 µM | 0.017 µM
COc1cc(Nc2cc(Oc3ccc(NC(=O)Nc4cc(C(C)(C)C)cc(NS(C)(=O)=O)c4OC)c4ccccc34)ccn2)ccc1C(=O)NCCN1CCN(C2CC2)CC1 [Example 26, 4-((4-((4-(3-(5-(tert-Butyl)-2-methoxy-3-(methylsulfonamido)phenyl)ureido)naphthalen-1-yl)oxy)pyridin-2-yl)amino)-N-(2-(4-cyclopropylpiperazin-1-yl)ethyl)-2-methoxybenzamide] | 94.8% | 84.6% | 76.6% | 0.04 µM |  | 
COc1cc(Nc2cc(Oc3ccc(NC(=O)Nc4cc(C(C)(C)C)cc(NS(C)(=O)=O)c4OC)c4ccccc34)ccn2)ccc1C(=O)NC[C@H](O)[C@H](O)[C@H](O)CO [Example 42, 4-((4-((4-(3-(5-(tert-Butyl)-2-methoxy-3-(methylsulfonamido)phenyl)ureido)naphthalen-1-yl)oxy)pyridin-2-yl)amino)-2-methoxy-N-((2S,3S4R)-2,3,4,5-tetrahydroxypentyl)benzamide] | 96.6% | 91.7% | 21.3% | 0.003 µM | 0.088 µM | 0.021 µM
COCCOCCOCCOc1ccc(Nc2cc(Oc3ccc(NC(=O)Nc4cc(C(C)(C)C)cc(NS(C)(=O)=O)c4OC)c4ccccc34)ccn2)cc1C#N [Example 8, N-(5-(tert-Butyl)-3-(3-(4-((2-((3-cyano-4-(2-(2-(2-methoxyethoxy)ethoxy)ethoxy)phenyl)amino)pyridin-4-yl)oxy)naphthalen-1-yl)ureido)-2-methoxyphenyl)methanesulfonamide] |  |  |  | 0.214 µM |  | 
COc1cc(Nc2cc(Oc3ccc(NC(=O)Nc4cc(C(C)(C)C)cc(NC(=O)CO)c4OC)c4ccccc34)ccn2)ccc1C(=O)NCCN1CC[S+]([O-])CC1 [Example 41, 4-((4-((4-(3-(5-(tert-Butyl)-3-(2-hydroxyacetamido)-2-methoxyphenyl)ureido)naphthalen-1-yl)oxy)pyridin-2-yl)amino)-2-methoxy-N-(2-(1-oxidothiomorpholino)ethyl)benzamide] | 90.5% | 67.3% | 55.3% | 0.031 µM | 0.325 µM | 0.013 µM
COc1cc(Nc2cc(Oc3ccc(NC(=O)Nc4cc(C(C)(C)C)cc(NS(C)(=O)=O)c4OC)c4ccccc34)ccn2)ccc1C(=O)NC(CO)(CO)CO [17(cm), 4-((4-((4-(3-(5-(tert-Butyl)-2-methoxy-3-(methylsulfonamido)phenyl)ureido)naphthalen-1-yl)oxy)pyridin-2-yl)amino)-N-(1,3-dihydroxy-2-(hydroxymethyl)propan-2-yl)-2-methoxybenzamide] | 95.9% | 77.0% | 14.5% | 0.047 µM | 0.082 µM | 0.029 µM
COc1cc(Nc2cc(Oc3ccc(NC(=O)Nc4cc(C(C)(C)C)cc(NS(C)(=O)=O)c4OC)c4ccccc34)ccn2)ccc1S(=O)(=O)CC(CO)(CO)CO [Example 45, N-(5-(tert-Butyl)-3-(3-(4-((2-((4-((3-hydroxy-2,2-bis(hydroxymethyl)propyl)sulfonyl)-3-methoxyphenyl)amino)pyridin-4-yl)oxy)naphthalen-1-yl)ureido)-2-methoxyphenyl)-methanesulfonamide] | 97.7% | 93.7% | 9.8% | 0.036 µM | 0.108 µM | 0.04 µM
COc1cc(Nc2cc(Oc3ccc(NC(=O)Nc4cc(C(C)(C)C)cc(NS(C)(=O)=O)c4OC)c4ccccc34)ccn2)ccc1S(=O)(=O)CCOCCOCCO [Example 40, N-(5-(tert-Butyl)-3-(3-(4-((2-((4-((2-(2-(2-hydroxyethoxy)ethoxy)ethyl)sulfonyl)-3-methoxyphenyl)amino)pyridin-4-yl)oxy)naphthalen-1-yl)ureido)-2-methoxyphenyl)-methanesulfonamide] | 89.6% | 73.6% | 67.1% | 0.162 µM | 0.4 µM | 0.195 µM
COc1cc(Nc2cc(Oc3ccc(NC(=O)Nc4cc(C(C)(C)C)cc(NC(=O)COP(=O)(O)O)c4OC)c4ccccc34)ccn2)ccc1C(=O)NCCN1CC[S+]([O-])CC1 [17(cp), 2-((5-(tert-Butyl)-2-methoxy-3-(3-(4-((2-((3-methoxy-4-((2-(1-oxidothiomorpholino)-ethyl)carbamoyl)phenyl)amino)pyridin-4-yl)oxy)naphthalen-1-yl)ureido)phenyl)amino)-2-oxoethyl dihydrogen phosphate] | 97.6% | 96.9% | 94.7% |  | 0.393 µM | 0.02 µM
